Test results from patent EP4650362A1, “NEUROPROTECTIVE PSD-95 POLYPEPTIDE INHIBITOR AND USE THEREOF” (Beijing Tuo Jie Biopharmaceutical Co. Ltd., priority 2023, dated 2024).
Values joined by “and” are separate entries in the source; they are usually repeats but may differ in a detail not shown here. Equal entries are not always repeated.

Assays:
[1] = plasma stability test, rat plasma; assay type: in vitro ADME; settings: 2 µM (test control)
Procedure: (§1) This test example assessed the in vitro stability of polypeptide compounds in rat and human plasma, and is divided into two parts: 1) the stability of the individual polypeptide compounds in rat and human plasma; and 2) the stability of the polypeptide compounds in rat and human plasma when the polypeptide compounds are administered simultaneously with alteplase (rt-PA).
(§2) Solution preparation: An appropriate amount of a test polypeptide compound was weighed out and dissolved in an appropriate amount of 1× PBS to form a 1 mM test solution. NA-1 and NoNO42 were used as positive drugs, propantheline bromide was used as a human plasma test control, and lovastatin was used as a rat plasma test control.
(§3) Plasma stability test: 12.5 µL of the 1 mM test solution was added to a 495 µL pre-incubated plasma sample. The prepared plasma sample was added to centrifuge tubes of different incubation times (0 min, 10 min, 20 min, 30 min, 60 min, and 120 min) (50 µL/tube), and the tubes were then incubated in a water bath at 37 °C with shaking at 60 rpm. For each incubation time, two parallel samples were set. Subsequently, 200 µL of stop solution was added to stop the incubation, and the mixtures were vortexed for 5 min. Then the mixtures were centrifuged at 10,000 rpm at 4 °C for 10 min to remove the protein in the sample, and 70 µL of the supernatant was transferred to a new 96-well plate (70 µL of water was added to each well beforehand) and well mixed.
(§4) The remaining compound content at each time point was determined by LC-MS/MS, and the relative remaining compound contents at the other time points were calculated with the content at 0 min as a standard (100%).
(§5) Sample pretreatment: A 30 µL plasma sample was taken and added to 120 µL of a 5% solution of formic acid in methanol containing 1 ng/mL internal standard (verapamil). The mixture was vortexed for 5 min and centrifuged at low temperature at 10,000 rpm for 10 min. 70 µL of the supernatant was taken, and 70 µL of a 0.1% aqueous solution of formic acid was added and well mixed, and the mixture was injected into an LC-MS system for analysis.
(§6) LC-MS analysis: (1) Chromatographic conditions: mobile phase A: 0.1% formic acid in water; mobile phase B: 0.1% formic acid in acetonitrile; flow rate: 0.5 mL/min; injection volume: 10 µL; chromatography column: nanomicro Unisil C18aq (4.6 mm × 150 mm, 5 µm); column temperature: 40 °C. (2) Mass-spectrometric conditions: The mass spectrometry analysis used an electrospray ionization (ESI) source, a positive ion analysis mode, and a multi-reaction monitoring (MRM) scan mode. The experimental results are shown in Table 4-1, Table 4-2, FIG. 2A, FIG. 2B, FIG. 2C, and FIG. 2D. Table 4-1. The plasma stability of the polypeptide compound

[2] = plasma stability test, human plasma; assay type: in vitro ADME; settings: 2 µM (test control)
Procedure: as §1, §2, §3, §4, §5, §6

[3] = biological target: human PSD95-PDZ2 (the tag was removed by TEV enzyme) (human) (UniProt P78352); experiment: competitive ELISA; NA-1 reference value printed with compound 16; competitor Biotin-NA-1 at 0.3 µM
[4] = biological target: Biotin-PDZ2 (human); experiment: binding ELISA; ratio of EC50 on Biotin-PDZ3 to EC50 on Biotin-PDZ2
[5] = biological target: human PSD95-PDZ2 (the tag was removed by TEV enzyme) (human) (UniProt P78352); experiment: competitive ELISA; NA-1 reference value printed with compound 17; competitor Biotin-NA-1 at 0.3 µM
[6] = biological target: human PSD95-PDZ2 (the tag was removed by TEV enzyme) (human) (UniProt P78352); experiment: competitive ELISA; NA-1 reference value printed with compound 15; competitor Biotin-NA-1 at 0.3 µM
[7] = biological target: Biotin-PDZ2 (human); experiment: binding ELISA; peptide coated at 2 µM, Biotin-PDZ2 titrated
[8] = biological target: human PSD95-PDZ2 (the tag was removed by TEV enzyme) (human) (UniProt P78352); experiment: competitive ELISA; NA-1 reference value printed with compound 22; competitor Biotin-NA-1 at 0.3 µM
[9] = test system: PDZ2; settings: Science, 2002, 298:846-50; cited from earlier work

Chain of human PSD95-PDZ2 (the tag was removed by TEV enzyme) (human) (P78352 155-249 limits assumed): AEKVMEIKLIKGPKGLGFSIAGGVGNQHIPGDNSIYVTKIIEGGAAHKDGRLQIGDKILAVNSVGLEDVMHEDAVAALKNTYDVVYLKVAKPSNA

## CC[C@H](C)C(=O)O[C@H]1C[C@@H](C)C=C2C=C[C@H](C)[C@H](CC[C@@H]3C[C@@H](O)CC(=O)O3)[C@H]21 [Lovastatin]
[1]; 0min (standard 100%)
  Relative remaining compound content (%): 100.0%
[1]; 10min
  Relative remaining compound content (%): 8.5% and 9.6%
[1]; 20min
  Relative remaining compound content (%): 1.8% and 2.1%
[1]; 30min
  Relative remaining compound content (%): 0.7% and 0.9%

## CC(C)[N+](C)(CCOC(=O)C1c2ccccc2Oc2ccccc21)C(C)C [Propantheline bromide]
[2]; 0min (standard 100%)
  Relative remaining compound content (%): 100.0%
[2]; 10min
  Relative remaining compound content (%): 80.2% and 84.0%
[2]; 20min
  Relative remaining compound content (%): 71.5% and 66.8%
[2]; 30min
  Relative remaining compound content (%): 63.4% and 53.4%
[2]; 60min
  Relative remaining compound content (%): 42.7% and 26.4%
[2]; 120min
  Relative remaining compound content (%): 10.9% and 7.2%

## NA-1 (peptide)
[3]
  IC50: 0.872 µM
[4]
  Specificity for PDZ2 (PDZ3/PDZ2): > 10000
[5]
  IC50: 0.872 µM
[6]
  IC50: 0.872 µM
[7]
  EC50: 0.083 µM
[8]
  IC50: 0.517 µM

## YGRKKRRQRRRKLSSIEADA (source 1..20: note = NA-1(ADA)) [negative control, mutant of NA-1 obtained by mutating the amino acids at positions 0 and -2 into Ala]
[9]
  ability to bind to PDZ2: no ability to bind to PDZ2
